Data on 3 compounds can be found in patent US20240108601A1, “TREATMENT OF MENTAL DISORDERS” (GH Research Ireland Limited, priority 2022, published 2024).

Molecules are shown by their SMILES.

Usually Ki stands for a measure of affinity in units of concentration, obtained from inhibition or displacement. By half-life is commonly meant how long it takes for the measured level to halve. High values mean slow decline, low ones rapid decline. For orientation: hepatocyte CLint means a measure of how fast metabolising enzymes remove a compound, apart from limits set by blood flow. A high value points to rapid turnover.

The target in one data set is T1, 5-HT2A receptors (Homo sapiens, UniProt P28223).
T1 construct: frontal cortical membranes (400 μl; equivalent 4 mg wet weight tissue/tube) was incubated with 50 μl of 0.1 nM; tissue Edinburgh Sudden Death Brain Bank; host or cells: post-mortem human frontal cortex membranes
The data set can be described thus: Radioligand ([3H]MDL-100,907) binding to 5-HT2A receptors in post-mortem human frontal cortex membranes.

Another data set concerns the target T2, 5-HT1A receptors (Homo sapiens, UniProt P08908).
T2 construct: hippocampal membranes (400 μl; equivalent 1.25 mg wet weight tissue/tube) were incubated with 50 μl of 0.6 nM; tissue Edinburgh Sudden Death Brain Bank; host or cells: post-mortem human hippocampus membranes
T2 sequence (P08908 1-422): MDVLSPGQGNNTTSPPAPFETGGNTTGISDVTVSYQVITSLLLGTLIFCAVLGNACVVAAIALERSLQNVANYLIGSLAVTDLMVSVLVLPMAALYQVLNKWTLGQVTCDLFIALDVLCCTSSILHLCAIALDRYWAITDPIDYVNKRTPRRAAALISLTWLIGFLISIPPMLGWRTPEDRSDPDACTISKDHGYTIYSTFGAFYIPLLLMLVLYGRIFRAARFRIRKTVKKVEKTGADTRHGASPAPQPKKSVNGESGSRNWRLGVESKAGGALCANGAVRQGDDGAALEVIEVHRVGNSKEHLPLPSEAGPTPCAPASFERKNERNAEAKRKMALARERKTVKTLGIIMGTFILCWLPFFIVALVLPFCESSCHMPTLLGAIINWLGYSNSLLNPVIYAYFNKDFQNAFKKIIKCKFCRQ
The data set can be described thus: Radioligand ([3H]8-OH-DPAT) binding to 5-HT1A receptors in post-mortem human hippocampus membranes.

The nature of data set [1]: Metabolic stability in Hμrel human hepatocyte co-culture. As to conditions: human.
The subject of data set [2] is human hepatocytes (Hμrel HumanPool co-culture). The data set is described as above.
In another data set the test system is human hepatocytes. The data set can be described thus: Metabolite identification in human hepatocyte suspension. As to conditions: 5-MeO-DMT free base 10 μM, incubated up to 120 minutes. The method, then:
For incubations with cryopreserved hepatocytes, the 2 mM stock solution was diluted with Leibovitz L-15 medium to a concentration of 20 μM or 2 μM. An aliquot (250 μL) of the 20 μM and 2 μM test substance formulations was added to each hepatocyte incubation sample (250 μL), as appropriate, so that the final test substance concentration in the incubations was 10 μM or 1 μM, respectively, and incubations contained less than 1% (v/v) solvent.
Incubations were performed at ca. 37° C. in a shaking water bath (total incubation volume 0.5 mL). For 1 μM, incubations were terminated after 0, 5, 10, 20, 30, 60 and 120 minutes, by the addition of ice-cold acetonitrile (0.5 mL).
The samples were vortex mixed and centrifuged at ca 13,000 rpm for 10 minutes at room temperature. Following centrifugation, the protein-free supernatants were removed for analysis.
Blank control incubations were carried out with Leibovitz L-15 medium in place of the test substance. No cells control samples were performed with Leibovitz L-15 medium in place of hepatocytes. Aliquots of the blank control samples were taken at 120 minutes, while no cells control samples were taken at 0, 30 and 120 for 1 μM incubations and at 0 and 120 minutes for 10 μM incubations.
All 1 μM incubations were performed in duplicate, while all 10 μM incubations were performed in singlet. All samples were stored at −80° C. (nominal) prior to analysis.
Prior to sample analysis a 100 μL aliquot of each sample was evaporated to near dryness under a steady stream of nitrogen at room temperature, and subsequently reconstituted in 50 μL of mobile phase A (0.1% formic acid in water). Each sample (0, 30 and 120-minute, 10 μM) was analysed using accurate mass LC-MS to determine relative levels of parent compound at each time-point, and determine the profile of metabolites formed. Appropriate blank and control samples were also analysed. The 10 and 60-minute, 10 μM incubation samples were not analysed and were stored at −80° C. (nominal). […]

T1 sequence (P28223 whole entry): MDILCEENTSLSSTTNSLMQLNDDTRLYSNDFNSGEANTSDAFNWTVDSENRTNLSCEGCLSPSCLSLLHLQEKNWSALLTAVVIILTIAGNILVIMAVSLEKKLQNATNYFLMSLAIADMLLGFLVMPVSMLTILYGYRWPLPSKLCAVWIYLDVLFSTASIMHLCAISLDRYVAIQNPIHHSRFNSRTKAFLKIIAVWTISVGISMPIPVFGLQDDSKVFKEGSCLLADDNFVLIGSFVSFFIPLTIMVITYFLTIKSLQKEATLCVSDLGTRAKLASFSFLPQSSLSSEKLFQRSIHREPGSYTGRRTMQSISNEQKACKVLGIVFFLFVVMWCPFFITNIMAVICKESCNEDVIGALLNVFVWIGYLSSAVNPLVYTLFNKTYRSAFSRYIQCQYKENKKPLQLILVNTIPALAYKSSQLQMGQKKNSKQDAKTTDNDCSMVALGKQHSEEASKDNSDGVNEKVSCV

In the case of `CN(C)CCc1c[nH]c2ccccc12` [DMT, N,N-dimethyltryptamine], the Ki on 5-HT2A receptors turned out to be 117 nM. This lies in the sub-micromolar range.
In turn, `CN(C)CCc1c[nH]c2cccc(O)c12` [psilocin] returned an inhibition constant (Ki) on 5-HT1A receptors of 48 nM.
`COc1ccc2[nH]cc(CCO)c2c1` [5-methoxytryptophol, 5-Methoxyindole-3-ethanol] came in with a half-life at 1 µM in data set [1] of 142 min. This compound yielded a hepatocyte CLint at 1 µM in data set [1] of 16.2 µL/min/1e6 cells. The “Disappearance with stromal cell controls” value in data set [2] (0-72 h) is reported as “no disappearance”. Further, the “Relative LC/MS peak area remaining” value was found to be 100% in data set [2] (1 μM Hepatocytes, 0 h); 79% in data set [2] (1 μM Hepatocytes, 1 h); 57% in data set [2] (1 μM Hepatocytes, 2 h); 33% in data set [2] (1 μM Hepatocytes, 4 h); 10% in data set [2] (1 μM Hepatocytes, 8 h); 0% in data set [2] (1 μM Hepatocytes, 24 h). In addition, the “Relative LC/MS peak area remaining” value in data set [2] (1 μM Hepatocytes, 48 h) is 0%; in data set [2] (1 μM Hepatocytes, 72 h), 0%; in data set [2] (1 μM Stromal cells, 0 h) it was 100%; in data set [2] (1 μM Stromal cells, 4 h), 97%; in data set [2] (1 μM Stromal cells, 8 h), 107%; in data set [2] (1 μM Stromal cells, 24 h) it was 94%. The “Relative LC/MS peak area remaining” value in data set [2] (1 μM Stromal cells, 48 h) came out at 102%; in data set [2] (1 μM Stromal cells, 72 h), 104%; in data set [2] (10 μM Hepatocytes, 0 h) it was 100%; in data set [2] (10 μM Hepatocytes, 1 h), 87%; in data set [2] (10 μM Hepatocytes, 2 h), 81%; in data set [2] (10 μM Hepatocytes, 4 h) it was 68%. Further, the “Relative LC/MS peak area remaining” value in data set [2] (10 μM Hepatocytes, 8 h) is listed as 42%; in data set [2] (10 μM Hepatocytes, 24 h), 1%; in data set [2] (10 μM Hepatocytes, 48 h) it was 0%; in data set [2] (10 μM Hepatocytes, 72 h), 0%; in data set [2] (10 μM Stromal cells, 0 h), 100%; in data set [2] (10 μM Stromal cells, 4 h), 99%. Also, the “Relative LC/MS peak area remaining” value in data set [2] (10 μM Stromal cells, 8 h) is 105%; in data set [2] (10 μM Stromal cells, 24 h), 86%; in data set [2] (10 μM Stromal cells, 48 h), 98%; in data set [2] (10 μM Stromal cells, 72 h), 104%. Also, in data set [2] (24h), the “Metabolic turnover in the presence of hepatocytes” value is listed as “complete disappearance”. In addition, the “Predicted hepatic extraction ratio” value in data set [2] (human) is listed as 67%. The “Relative Proportion of compounds identified” value with human hepatocytes was 25%.
